What all share (format): cell-based
The subject of one assay is Renilla. The experiment in a line: Renilla signal in NR2F6 agonist screening, cmpd/DMSO. The following applies: Renilla, Table 14, read-out: Renilla F4, cmpd/DMSO (mean).
For another assay, the system named is HEK293 pGL4. The experiment in a line: Firefly_pGL signal, cmpd/DMSO (pGL4 control cells). The following applies: Homo sapiens, HEK293, Table 14, read-out: Firefly pGL4, cmpd/DMSO (mean).
A further assay addresses T1, NR2F6 (Homo sapiens, UniProt P10588).
T1 construct: expressed in transfected cells; also transient transfection
T1 sequence (P10588 1-404): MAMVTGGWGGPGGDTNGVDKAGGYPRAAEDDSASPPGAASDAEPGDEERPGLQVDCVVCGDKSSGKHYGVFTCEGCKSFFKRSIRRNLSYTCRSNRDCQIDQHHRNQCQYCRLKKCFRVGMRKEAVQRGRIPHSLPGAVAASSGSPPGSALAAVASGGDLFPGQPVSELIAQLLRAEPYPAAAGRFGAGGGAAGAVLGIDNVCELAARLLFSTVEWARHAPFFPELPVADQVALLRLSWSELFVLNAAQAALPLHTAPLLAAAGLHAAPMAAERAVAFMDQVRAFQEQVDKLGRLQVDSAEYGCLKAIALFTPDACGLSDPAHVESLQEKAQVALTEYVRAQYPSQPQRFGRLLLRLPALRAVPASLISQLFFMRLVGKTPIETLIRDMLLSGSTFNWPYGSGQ
The experiment in a line: NR2F6 agonist screening, Firefly signal cmpd/DMSO. The following applies: Table 14.

Regarding `CCOC(=O)c1cnc2c(C)cc(C)cc2c1NCc1ccccc1` [Compound Z74], the fold induction at 2 µM with Renilla is 0.8; in the assay with HEK293 pGL4, 0.7. In addition, the fold induction at 10 µM with Renilla was determined as 0.2; with HEK293 pGL4, 0.6. Besides, the values for the fold induction at 40 µM with Renilla and with HEK293 pGL4 were 0.3 and 0.7, respectively. For the same compound, the results for the “Firefly F4, cmpd/DMSO (mean)” value at NR2F6 (2 uM), on NR2F6 (10 uM) and on NR2F6 (40 uM) were 0.7, 0.5 and 0.7, respectively.

Regarding `CCOC(=O)c1cnc2c(C)cc(C)cc2c1N1CCC(CO)CC1` [Compound Z79], the fold induction at 2 µM in the assay on Renilla came out at 0.9; with HEK293 pGL4, 0.8. In addition, the values for the fold induction at 10 µM with Renilla and with HEK293 pGL4 were 0.6 and 0.5, respectively. For the same compound, the fold induction at 40 µM in the assay with Renilla worked out at 0.2; in the assay with HEK293 pGL4, 0.8. Moreover, the “Firefly F4, cmpd/DMSO (mean)” value at NR2F6 (2 uM) was 0.9; on NR2F6 (10 uM), 0.5; at NR2F6 (40 uM), 0.3.

For `COC(=O)c1cnc2c(C)cc(C)cc2c1NCCCN(C)C` [Compound Z81], the fold induction at 2 µM in the assay on Renilla turned out to be 1.1; in the assay on HEK293 pGL4 it was 1.4. Besides, the fold induction at 10 µM with Renilla was 0.3; with HEK293 pGL4, 0.9. The values for the fold induction at 40 µM in the assay with Renilla and in the assay with HEK293 pGL4 were 0.3 and 0.7, respectively. Besides, the “Firefly F4, cmpd/DMSO (mean)” value is 2.4 on NR2F6 (2 uM), 0.7 at NR2F6 (10 uM) and 0.4 on NR2F6 (40 uM).

For `Cc1cc(C)c2ncc(C(N)=O)c(NCCCN(C)C)c2c1` [Compound Z83], the fold induction at 2 µM in the assay on Renilla and in the assay on HEK293 pGL4 was 1 in each case. The fold induction at 10 µM turned out to be 0.8 in the assay on Renilla and 0.9 with HEK293 pGL4. For the same compound, the fold induction at 40 µM with Renilla was found to be 0.3; with HEK293 pGL4, 0.5. Besides, the “Firefly F4, cmpd/DMSO (mean)” value is on record as 1.2 on NR2F6 (2 uM), 0.6 at NR2F6 (10 uM) and 0.7 on NR2F6 (40 uM).

For the compound `CCOC(=O)c1cnc2c(C)cccc2c1NCCCN(C)C` [Compound Z90], the values for the fold induction at 2 µM with Renilla and in the assay with HEK293 pGL4 were 0.9 and 0.7, respectively. For the same compound, the fold induction at 10 µM in the assay with Renilla worked out at 0.2; in the assay on HEK293 pGL4 it was 2.4. The results for the fold induction at 40 µM with Renilla and with HEK293 pGL4 were 0.1 and 0.7, respectively. Also, the “Firefly F4, cmpd/DMSO (mean)” value on NR2F6 (2 uM) came out at 0.7; at NR2F6 (10 uM) it was 2.5; at NR2F6 (40 uM) it was 0.4.

Turning to `Cc1cc(C)n2nc(CNS(=O)(=O)c3ccc(Cl)cc3)nc2n1` [Compound Z91], the fold induction at 2 µM came out at 1.1 with Renilla and 1 in the assay with HEK293 pGL4. Moreover, the values for the fold induction at 10 µM in the assay with Renilla and in the assay with HEK293 pGL4 were 1.1 and 1, respectively. In addition, the fold induction at 40 µM is 0.8 with Renilla and 1.1 with HEK293 pGL4. Besides, the figures for the “Firefly F4, cmpd/DMSO (mean)” value on NR2F6 (2 uM), at NR2F6 (10 uM) and on NR2F6 (40 uM) were 1.0, 1.1 and 1.3, respectively.

(Values after patent publication US11377442B2, “Small molecule agonists and antagonists of NR2F6 activity” (ZANDER THERAPEUTICS, INC., priority 2016, dated 2022).)
